Data from ChEMBL document CHEMBL1201862, “PubChem BioAssay data set” (2004).
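96-well plates; 48 h exposure; 5 concentrations. Endpoints by linear interpolation between flanking doses. Not reached: highest tested concentration assigned. GI50 marks 50% less growth.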 Active and inactive are the calls of the source. Rule as the data show it: active = GI50 up to about 1.1 µM and inactive = higher.

Columns and labels:
Test in all cases: NCI tumour cell line growth inhibition, 48 h
RPMI-8226 = tested on: RPMI-8226
SK-MEL-2 = tested on: SK-MEL-2
MOLT-4 = tested on: MOLT-4
KM12 = tested on: KM12
SK-MEL-5 = tested on: SK-MEL-5
HOP-62 = tested on: HOP-62
OVCAR-5 = tested on: OVCAR-5
NCI-H522 = tested on: NCI-H522
DLD-1 = tested on: DLD-1
SF-539 = tested on: SF-539
ACHN = tested on: ACHN
SF-268 = tested on: SF-268
DMS-273 = tested on: DMS-273
UO-31 = tested on: UO-31
HOP-92 = tested on: HOP-92
KM-20L2 = tested on: KM-20L2
T47D = tested on: T47D
NCI/ADR-RES = tested on: NCI/ADR-RES
MDA-MB-231 = tested on: MDA-MB-231

Measured: GI50

Cc1cccc(-n2c(N)c(-c3nc4ccccc4[nH]3)sc2=S)c1
inactive: RPMI-8226 20.7 µM | SK-MEL-2 23.7 µM | MOLT-4 20.6 µM | KM12 22 µM | SK-MEL-5 20.9 µM | HOP-62 29.6 µM | OVCAR-5 55.1 µM | NCI-H522 25.6 µM | DLD-1 25.1 µM | SF-539 20.4 µM | ACHN 23.9 µM | SF-268 76.6 µM | DMS-273 20.1 µM | UO-31 33 µM

Cc1cc2nc3c(=O)[nH]c(=O)nc-3n(CC(O)C(O)C(O)CO)c2cc1N (stereo unspecified)
inactive: RPMI-8226 > 100 µM | SK-MEL-2 > 100 µM | MOLT-4 > 100 µM | KM12 > 100 µM | SK-MEL-5 > 100 µM | SF-539 > 100 µM | HOP-92 > 100 µM | ACHN > 100 µM | DMS-273 > 100 µM | UO-31 > 100 µM

C=C[Si](C)(C)COC(=O)/C(C#N)=C/C=C/c1ccccc1
inactive: RPMI-8226 37.2 µM | SK-MEL-2 > 100 µM | MOLT-4 28.7 µM | KM12 > 100 µM | SK-MEL-5 > 100 µM | HOP-62 > 100 µM | OVCAR-5 > 100 µM | NCI-H522 46.3 µM | DLD-1 > 100 µM | SF-539 > 100 µM | HOP-92 > 100 µM | ACHN > 100 µM | KM-20L2 > 100 µM | SF-268 > 100 µM | DMS-273 85.7 µM | UO-31 > 100 µM

Nc1c(-c2nc3ccccc3[nH]2)sc(=S)n1-c1ccccc1
inactive: RPMI-8226 34 µM | SK-MEL-2 > 100 µM | MOLT-4 16.3 µM | KM12 > 100 µM | SK-MEL-5 > 100 µM | HOP-62 > 100 µM | OVCAR-5 > 100 µM | NCI-H522 77.3 µM | DLD-1 60.7 µM | SF-539 > 100 µM | HOP-92 > 100 µM | ACHN 18.4 µM | KM-20L2 > 10 µM | SF-268 > 100 µM | DMS-273 > 100 µM | UO-31 > 100 µM

[N-]=[N+]=Nc1c(N2CCOCC2)c(Cl)nc2ccccc12
inactive: RPMI-8226 74 µM | SK-MEL-2 39 µM | MOLT-4 65.2 µM | KM12 27 µM | SK-MEL-5 20.7 µM | HOP-62 58.6 µM | OVCAR-5 > 100 µM | T47D 65.6 µM | NCI-H522 29.7 µM | SF-539 65.5 µM | NCI/ADR-RES 26.4 µM | HOP-92 46.7 µM | ACHN 39.2 µM | MDA-MB-231 23.1 µM | SF-268 37.5 µM | UO-31 33.6 µM

Cc1cc(NS(=O)(=O)c2ccc(NC(=O)c3cccc4c(NNc5ccc(S(N)(=O)=O)cc5)c5ccccc5nc34)cc2)no1
inactive: RPMI-8226 43.4 µM | SK-MEL-2 24 µM | MOLT-4 31 µM | KM12 38.1 µM | SK-MEL-5 39.5 µM | HOP-62 42.4 µM | OVCAR-5 39.6 µM | T47D 26 µM | NCI-H522 25 µM | SF-539 > 100 µM | NCI/ADR-RES > 100 µM | HOP-92 22.7 µM | ACHN 39 µM | MDA-MB-231 54.5 µM | SF-268 34.9 µM | UO-31 36.1 µM

O/N=C1/C(=C/c2ccc(OCc3ccccc3)cc2)CCCC1C(NO)c1ccc(OCc2ccccc2)cc1 (stereo unspecified)
inactive: SK-MEL-2 8.55 µM | MOLT-4 5.6 µM | KM12 24.2 µM | SK-MEL-5 6.04 µM | HOP-62 38.9 µM | OVCAR-5 > 100 µM | NCI-H522 6.27 µM | DLD-1 10.2 µM | SF-539 24.9 µM | HOP-92 11.1 µM | ACHN 17 µM | KM-20L2 8.38 µM | DMS-273 13 µM | UO-31 14.6 µM

Cc1nc2ccccc2c(=O)n1-c1n[nH]c2ccccc12
inactive: RPMI-8226 > 100 µM | SK-MEL-2 > 100 µM | MOLT-4 > 100 µM | KM12 > 100 µM | SK-MEL-5 > 100 µM | HOP-62 > 100 µM | OVCAR-5 > 100 µM | T47D > 100 µM | NCI-H522 > 100 µM | SF-539 > 100 µM | NCI/ADR-RES > 100 µM | HOP-92 > 100 µM | ACHN > 100 µM | MDA-MB-231 > 100 µM | SF-268 > 100 µM | UO-31 > 100 µM

O=C(Cn1c(=O)oc2ccc(C(=O)c3ccccc3Cl)cc21)c1ccc([N+](=O)[O-])cc1
inactive: RPMI-8226 9.51 µM | SK-MEL-2 20.4 µM | MOLT-4 8.2 µM | KM12 20.1 µM | SK-MEL-5 16.3 µM | HOP-62 25.1 µM | OVCAR-5 47.6 µM | T47D 8.11 µM | NCI-H522 14.9 µM | SF-539 28.8 µM | NCI/ADR-RES 22.6 µM | HOP-92 27.5 µM | ACHN 32.7 µM | MDA-MB-231 20.8 µM | SF-268 24.8 µM | UO-31 23.6 µM

O=[N+]([O-])c1ccc(Cl)c(CNc2ncnc3c2ncn3C2CCCCO2)c1 (stereo unspecified)
inactive: RPMI-8226 38.6 µM | SK-MEL-2 28.5 µM | MOLT-4 26.1 µM | KM12 66.7 µM | SK-MEL-5 21.7 µM | HOP-62 48.4 µM | OVCAR-5 > 100 µM | T47D 55.3 µM | NCI-H522 32.8 µM | SF-539 22.8 µM | NCI/ADR-RES 25.1 µM | HOP-92 42.3 µM | ACHN 44.9 µM | MDA-MB-231 32.9 µM | SF-268 97.9 µM | UO-31 22 µM

Cc1nc2ccccc2nc1CC(=O)C(=O)Nc1ccc(Cl)cc1Cl
inactive: RPMI-8226 > 100 µM | SK-MEL-2 > 100 µM | MOLT-4 > 100 µM | KM12 > 100 µM | SK-MEL-5 > 100 µM | HOP-62 > 100 µM | OVCAR-5 > 100 µM | NCI-H522 57.4 µM | DLD-1 > 100 µM | SF-539 > 100 µM | HOP-92 > 100 µM | ACHN > 100 µM | KM-20L2 > 100 µM | SF-268 > 100 µM | DMS-273 > 100 µM | UO-31 > 100 µM

Cc1nc(N)nc(N)c1CCCCc1ccccc1
inactive: RPMI-8226 20.8 µM | SK-MEL-2 16.7 µM | MOLT-4 5.3 µM | KM12 18.1 µM | SK-MEL-5 4.39 µM | HOP-62 13.6 µM | OVCAR-5 6.93 µM | NCI-H522 10.2 µM | DLD-1 6.15 µM | SF-539 10.7 µM | HOP-92 22.5 µM | ACHN 9.2 µM | KM-20L2 10.8 µM | SF-268 11 µM | DMS-273 4.7 µM | UO-31 19.4 µM

O=C(Nc1ccc([N+](=O)[O-])cc1[N+](=O)[O-])C(=O)C(C(=O)c1ccc(Cl)c(Cl)c1)C1OC(=O)c2ccccc21 (stereo unspecified)
inactive: RPMI-8226 25 µM | SK-MEL-2 > 10 µM | MOLT-4 14.6 µM | KM12 18.4 µM | HOP-62 16.7 µM | OVCAR-5 25.8 µM | NCI-H522 17.1 µM | DLD-1 19.1 µM | SF-539 > 10 µM | HOP-92 1.26 µM | ACHN 23.3 µM | KM-20L2 29.8 µM | SF-268 25.3 µM | DMS-273 31 µM | UO-31 26.3 µM

CCCCCCCCCCCCCCCCCCNc1ccn(C2OC(COP(=O)(O)OCC3OC(n4cc(C)c(=O)[nH]c4=O)CC3F)C(O)C2O)c(=O)n1 (stereo unspecified)
inactive: RPMI-8226 3.52 µM | SK-MEL-2 9.14 µM | MOLT-4 3.13 µM | KM12 5.22 µM | SK-MEL-5 9.89 µM | HOP-62 9.75 µM | OVCAR-5 2.56 µM | T47D 7.38 µM | NCI-H522 4.29 µM | SF-539 9.46 µM | NCI/ADR-RES 30.9 µM | HOP-92 18.4 µM | ACHN 13 µM | MDA-MB-231 10.7 µM | SF-268 8.59 µM | UO-31 13.2 µM

O=C1/C(=C/c2ccco2)N=C2Sc3c([nH]cnc3=O)N12
inactive: RPMI-8226 > 100 µM | SK-MEL-2 > 100 µM | MOLT-4 > 100 µM | KM12 > 100 µM | SK-MEL-5 > 100 µM | HOP-62 > 100 µM | OVCAR-5 > 100 µM | T47D > 100 µM | NCI-H522 > 100 µM | SF-539 > 100 µM | NCI/ADR-RES > 100 µM | HOP-92 > 100 µM | ACHN > 100 µM | MDA-MB-231 > 100 µM | SF-268 > 100 µM | UO-31 > 100 µM

Clc1ccc(C2=Cc3nc2c(-c2ccccc2)c2ccc([nH]2)c(-c2ccccc2)c2nc(c(-c4ccccc4)c4ccc([nH]4)c3-c3ccccc3)C=C2)cc1
inactive: RPMI-8226 > 62.5 µM | SK-MEL-2 > 62.5 µM | MOLT-4 > 62.5 µM | KM12 > 62.5 µM | SK-MEL-5 > 62.5 µM | HOP-62 > 62.5 µM | OVCAR-5 > 62.5 µM | T47D > 62.5 µM | NCI-H522 > 62.5 µM | SF-539 > 62.5 µM | NCI/ADR-RES > 62.5 µM | HOP-92 61 µM | ACHN > 62.5 µM | MDA-MB-231 > 62.5 µM | SF-268 > 62.5 µM | UO-31 > 62.5 µM

NC1N=C(c2ccc(Cl)cc2)C2=C(N1)c1ccccc1CC2 (stereo unspecified)
inactive: RPMI-8226 2.66 µM | SK-MEL-2 9.08 µM | MOLT-4 3.17 µM | KM12 4.03 µM | SK-MEL-5 14.7 µM | HOP-62 > 40.6 µM | OVCAR-5 51.1 µM | T47D 10.4 µM | NCI-H522 4.07 µM | SF-539 14.6 µM | NCI/ADR-RES 13 µM | HOP-92 33.6 µM | ACHN > 51.2 µM | MDA-MB-231 10.5 µM | SF-268 > 54 µM | UO-31 32.7 µM
